Values quoted from earlier work as cited in patent US20140349947A1, “HAIR GROWTH AGENT (EMBODIMENTS) AND METHOD FOR HAIR REGROWTH” (priority 2012, published 2014).

What was measured:
[1] = not given; remark: listed apart in the source
[2] = in ointments and gels, dose up to 1,000 IU/g

For Low molecular weight heparin, the Bioavailability is given as “high”.

For heparin sodium [Unfractionated heparin], the “Duration of the effects of heparin in tissues” value ([1]; after a single skin application) is listed as “up to 8 hours”, the “Part of preparation deposited in the upper layers of skin” value ([1]; after application of ointment or gel) is listed as “up to 50%” and the “Effect on bleeding time” value [1, 2] is listed as “does not affect the bleeding time”. The Systemic effect [1, 2] was “does not have a systemic effect” and the Bioavailability was “low”.
